{
  "source": "ChEMBL document CHEMBL3098114",
  "about": "“Combining the tail and the ring approaches for obtaining potent and isoform-selective carbonic anhydrase inhibitors: solution and X-ray crystallographic studies” (Bioorg Med Chem, 2014)",
  "key": {"Carbonic anhydrase 1": {"target": "Carbonic anhydrase 1 (Homo sapiens, UniProt P00915)", "sequence (P00915 whole entry)": "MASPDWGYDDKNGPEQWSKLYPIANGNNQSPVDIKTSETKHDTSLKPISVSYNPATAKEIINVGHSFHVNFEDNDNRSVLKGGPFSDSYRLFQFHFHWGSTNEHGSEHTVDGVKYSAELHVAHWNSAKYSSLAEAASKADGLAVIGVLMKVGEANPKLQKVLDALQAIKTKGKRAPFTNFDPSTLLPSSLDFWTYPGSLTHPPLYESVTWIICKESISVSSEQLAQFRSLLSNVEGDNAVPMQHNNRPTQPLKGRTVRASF"}, "Carbonic anhydrase 12": {"target": "Carbonic anhydrase 12 (Homo sapiens, UniProt O43570)", "sequence (O43570 whole entry)": "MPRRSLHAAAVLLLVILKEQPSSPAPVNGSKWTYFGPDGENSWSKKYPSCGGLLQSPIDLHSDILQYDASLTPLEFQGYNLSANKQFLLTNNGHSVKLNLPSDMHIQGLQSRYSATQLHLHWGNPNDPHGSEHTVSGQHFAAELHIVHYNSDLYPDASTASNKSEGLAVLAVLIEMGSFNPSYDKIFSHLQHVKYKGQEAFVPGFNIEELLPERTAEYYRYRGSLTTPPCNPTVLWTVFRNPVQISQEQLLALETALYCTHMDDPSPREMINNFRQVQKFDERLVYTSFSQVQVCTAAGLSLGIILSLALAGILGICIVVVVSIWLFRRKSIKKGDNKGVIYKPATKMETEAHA"}, "Carbonic anhydrase 2": {"target": "Carbonic anhydrase 2 (Homo sapiens, UniProt P00918)", "test": "Inhibition of human CA2 cytosolic isoform preincubated for 15 mins by stopped-flow CO2 hydration method"}, "Carbonic anhydrase 7": {"target": "Carbonic anhydrase 7 (Homo sapiens, UniProt P43166)", "sequence (P43166 whole entry)": "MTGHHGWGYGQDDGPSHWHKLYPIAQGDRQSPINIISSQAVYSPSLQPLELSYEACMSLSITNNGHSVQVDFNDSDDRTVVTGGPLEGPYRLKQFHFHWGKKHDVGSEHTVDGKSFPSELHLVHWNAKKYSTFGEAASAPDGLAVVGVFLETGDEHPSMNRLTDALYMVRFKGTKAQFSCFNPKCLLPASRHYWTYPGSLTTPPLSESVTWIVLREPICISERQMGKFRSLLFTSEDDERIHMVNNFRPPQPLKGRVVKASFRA", "test": "Inhibition of human CA7 preincubated for 15 mins by stopped-flow CO2 hydration method"}, "Carbonic anhydrase 3": {"target": "Carbonic anhydrase 3 (Homo sapiens, UniProt P07451)", "sequence (P07451 whole entry)": "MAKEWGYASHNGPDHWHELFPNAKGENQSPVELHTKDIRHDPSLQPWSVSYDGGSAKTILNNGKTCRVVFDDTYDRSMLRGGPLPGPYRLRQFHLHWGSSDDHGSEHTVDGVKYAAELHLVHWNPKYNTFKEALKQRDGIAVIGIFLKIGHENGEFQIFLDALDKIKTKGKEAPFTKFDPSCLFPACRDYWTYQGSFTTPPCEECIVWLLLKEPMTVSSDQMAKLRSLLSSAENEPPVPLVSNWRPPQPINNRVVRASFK"}, "Carbonic anhydrase 9": {"target": "Carbonic anhydrase 9 (Homo sapiens, UniProt Q16790)"}, "Carbonic anhydrase 13": {"target": "Carbonic anhydrase 13 (Homo sapiens, UniProt Q8N1Q1)", "sequence (Q8N1Q1 whole entry)": "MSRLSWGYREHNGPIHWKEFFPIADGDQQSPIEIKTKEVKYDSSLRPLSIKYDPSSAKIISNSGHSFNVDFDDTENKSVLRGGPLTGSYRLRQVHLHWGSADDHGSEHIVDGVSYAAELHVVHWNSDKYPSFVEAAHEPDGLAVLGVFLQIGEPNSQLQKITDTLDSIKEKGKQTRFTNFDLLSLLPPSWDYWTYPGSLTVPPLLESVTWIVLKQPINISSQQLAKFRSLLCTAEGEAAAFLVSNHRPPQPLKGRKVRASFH"}},
  "data": [
    {"smiles": "Nc1ccc(S(N)(=O)=O)nc1", "values": [
      {"measurement": "Ki", "setting": "Carbonic anhydrase 1", "result": 24700, "unit": "nM"},
      {"measurement": "Ki", "setting": "Carbonic anhydrase 12", "result": 114, "unit": "nM"},
      {"measurement": "Ki", "setting": "Carbonic anhydrase 2", "result": 253, "unit": "nM"},
      {"measurement": "Ki", "setting": "Carbonic anhydrase 7", "result": 135, "unit": "nM"},
      {"measurement": "Ki", "setting": "Carbonic anhydrase 3", "result": "> 100000", "unit": "nM"},
      {"measurement": "Ki", "setting": "Carbonic anhydrase 9", "result": 279, "unit": "nM"}
    ]},
    {"smiles": "Cc1ccc(S(=O)(=O)NC(=O)Nc2ccc(S(N)(=O)=O)nc2)cc1", "values": [
      {"measurement": "Ki", "setting": "Carbonic anhydrase 7", "result": 30, "unit": "nM"},
      {"measurement": "Ki", "setting": "Carbonic anhydrase 3", "result": "> 100000", "unit": "nM"}
    ]},
    {"smiles": "Cc1ccc(S(=O)(=O)NC(=O)Nc2ccc(S(N)(=O)=O)cc2)cc1", "values": [
      {"measurement": "Ki", "setting": "Carbonic anhydrase 7", "result": 6.4, "unit": "nM"},
      {"measurement": "Ki", "setting": "Carbonic anhydrase 3", "result": "> 100000", "unit": "nM"}
    ]},
    {"smiles": "Nc1ccc(S(N)(=O)=O)cc1", "note": "[SULFANILAMIDE]", "values": [
      {"measurement": "Ki", "setting": "Carbonic anhydrase 13", "result": 35, "unit": "nM"},
      {"measurement": "Ki", "setting": "Carbonic anhydrase 3", "result": "> 100000", "unit": "nM"}
    ]}
  ]
}
